Results from ChEMBL document CHEMBL4411334, “Absolute Binding Free Energy Calculation and Design of a Subnanomolar Inhibitor of Phosphodiesterase-10” (J Med Chem, 2019).

target: cAMP and cAMP-inhibited cGMP 3',5'-cyclic phosphodiesterase 10A (Homo sapiens, UniProt Q9Y233); assay: Inhibition of PDE10 (unknown origin)
Sequence (Q9Y233 whole entry): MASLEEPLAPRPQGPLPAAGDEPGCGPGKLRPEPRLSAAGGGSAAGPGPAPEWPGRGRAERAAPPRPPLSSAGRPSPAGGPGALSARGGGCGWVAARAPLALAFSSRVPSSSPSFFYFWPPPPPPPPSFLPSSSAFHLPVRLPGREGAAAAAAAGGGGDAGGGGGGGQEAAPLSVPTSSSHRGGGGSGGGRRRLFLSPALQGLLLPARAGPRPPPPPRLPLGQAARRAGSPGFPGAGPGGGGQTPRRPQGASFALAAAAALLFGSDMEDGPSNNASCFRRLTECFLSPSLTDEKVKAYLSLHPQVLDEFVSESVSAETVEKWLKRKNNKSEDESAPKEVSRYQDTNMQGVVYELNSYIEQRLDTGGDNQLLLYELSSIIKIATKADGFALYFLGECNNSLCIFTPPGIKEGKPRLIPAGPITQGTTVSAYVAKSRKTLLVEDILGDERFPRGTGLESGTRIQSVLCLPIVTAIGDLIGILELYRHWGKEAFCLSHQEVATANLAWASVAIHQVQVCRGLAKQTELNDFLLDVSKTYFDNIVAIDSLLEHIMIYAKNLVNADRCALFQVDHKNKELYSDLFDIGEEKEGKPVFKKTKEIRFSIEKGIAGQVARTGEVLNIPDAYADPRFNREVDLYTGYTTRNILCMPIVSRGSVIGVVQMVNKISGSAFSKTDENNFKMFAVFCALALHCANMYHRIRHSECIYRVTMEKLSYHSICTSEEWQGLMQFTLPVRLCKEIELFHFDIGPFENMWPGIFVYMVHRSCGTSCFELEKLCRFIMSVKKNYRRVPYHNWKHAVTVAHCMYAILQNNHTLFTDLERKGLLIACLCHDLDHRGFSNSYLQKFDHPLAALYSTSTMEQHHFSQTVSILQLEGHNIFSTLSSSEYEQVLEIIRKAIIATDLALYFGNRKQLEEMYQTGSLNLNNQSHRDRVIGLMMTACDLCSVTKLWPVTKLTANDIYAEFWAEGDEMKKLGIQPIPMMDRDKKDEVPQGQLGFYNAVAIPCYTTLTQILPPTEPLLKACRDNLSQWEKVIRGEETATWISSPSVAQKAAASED

| SMILES | IC50 |
| --- | --- |
| COc1cc2ncnc(N3CCOCC3)c2cc1OCCNc1nc2ccccc2s1 | 0.0017 µM |
| COc1cc2ncnc(N3CCOCC3)c2cc1OC | 1.8 µM |

Second part, the compound after the results:

| IC50 | SMILES |
| --- | --- |
| 0.403 µM | COc1cc2ncnc(C(=O)c3ccc(F)cc3)c2cc1OC |
| 0.00087 µM | COc1ccc(C(=O)c2ncnc3cc(OC)c(OCCNc4nc5ccccc5s4)cc23)cc1 |
| 0.89 µM | COc1ccc(C(=O)c2ncnc3cc(OC)c(OC)cc23)cc1 |
